Patent publication EP4800012A1, “COMPOUND ACTING AS PARP7 INHIBITOR” (Dovetree Medicines Unus, Inc., priority 2023, dated 2025)
pIC50: −log10 of the molar value. Where two headings read alike, the source gives them in different places.

Assays:
[1] = biological target: T1, PARP7 (Homo sapiens, UniProt Q7Z3E1); experiment: PARP7 in vitro enzyme activity inhibition (chemiluminescence assay, selectivity test); type: biochemical
T1 construct: purchased BPS 80527
T1 sequence (Q7Z3E1 1-657): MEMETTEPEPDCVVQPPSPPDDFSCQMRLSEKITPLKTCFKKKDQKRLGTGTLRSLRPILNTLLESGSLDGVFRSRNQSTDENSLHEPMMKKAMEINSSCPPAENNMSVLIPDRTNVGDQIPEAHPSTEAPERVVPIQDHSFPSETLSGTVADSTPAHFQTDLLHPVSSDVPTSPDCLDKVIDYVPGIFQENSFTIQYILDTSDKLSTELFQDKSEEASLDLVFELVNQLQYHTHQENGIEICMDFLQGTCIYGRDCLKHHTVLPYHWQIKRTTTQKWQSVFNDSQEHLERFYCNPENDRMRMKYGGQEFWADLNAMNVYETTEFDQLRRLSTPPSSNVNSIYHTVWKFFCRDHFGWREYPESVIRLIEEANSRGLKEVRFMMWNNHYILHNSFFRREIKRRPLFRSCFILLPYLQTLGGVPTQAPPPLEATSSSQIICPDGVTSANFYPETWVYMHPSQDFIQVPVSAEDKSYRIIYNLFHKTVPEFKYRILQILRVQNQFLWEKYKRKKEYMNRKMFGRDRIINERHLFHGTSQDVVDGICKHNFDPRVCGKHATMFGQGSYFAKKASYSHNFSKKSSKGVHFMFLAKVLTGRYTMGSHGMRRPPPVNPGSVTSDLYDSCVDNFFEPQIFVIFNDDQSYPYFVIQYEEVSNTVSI
Procedure: (§1) Following the method in test example 1, the IC50 value of the inhibition of each compound on PARP7 activity were detected and obtained. Reference was made to the method in test example 1, except that the 6.25 nM of PARP7 solution in the ribosylation reaction step was replaced with a 5 nM of PARP1 solution or a 5 nM of PARP2. Similar to the 6.25 nM of PARP7 solution, the 5 nM of PARP1 solution and 5 nM of PARP2 solution were also formulated and obtained by using 1× Assay buffer.

[2] = biological target: T1, PARP7; experiment: Inhibition of the compound on PARP7 protein activity (ADP-ribosylation, chemiluminescence); type: biochemical
[3] = system: NCI-H1373 cells; experiment: Inhibition on NCI-H1373 cell proliferation (Cell-Titer-Glo); type: cell-based; details: Homo sapiens, 144 h; NCI-H1373 cells, incubation for 6 days, Cell-Titer-Glo; read-out: NCI-H1373 cell proliferation inhibition IC50
[4] = biological target: T1, PARP7; experiment: PARP7 TR-FRET binding inhibition (displacement of probe RBN011147)
Procedure: The ability of the compound to substitute the probe RBN011147 (Wigle et al., 2020, Cell Chemical Biology 27, 877-887) was tested by a TR-FRET method, and IC50 was calculated to evaluate the binding ability of the compound to PARP7. […]

[5] = biological target: PARP1 (Homo sapiens, UniProt P09874); experiment: PARP1 in vitro enzyme activity inhibition (chemiluminescence assay); type: biochemical
Procedure: as §1

[6] = biological target: PARP2 (Homo sapiens, UniProt Q9UGN5); experiment: PARP2 in vitro enzyme activity inhibition (chemiluminescence assay); type: biochemical
Procedure: as §1

[7] = 6.25 nM of PARP7 solution, method of test example 1; read-out: PARP7 activity inhibition IC50
[8] = Histone H1 coated plate, Biotin-Labeled NAD+, 2 h at room temperature, chemiluminescence; read-out: PARP7 activity inhibition IC50
[9] = TR-FRET, Biotin-labeled probe RBN011147; read-out: PARP7 binding inhibition IC50
[10] = 5 nM of PARP1 solution, method of test example 1; read-out: PARP1 activity inhibition IC50
[11] = 5 nM of PARP2, method of test example 1; read-out: PARP2 activity inhibition IC50

Sequence of PARP2 (Q9UGN5 whole entry, species assumed): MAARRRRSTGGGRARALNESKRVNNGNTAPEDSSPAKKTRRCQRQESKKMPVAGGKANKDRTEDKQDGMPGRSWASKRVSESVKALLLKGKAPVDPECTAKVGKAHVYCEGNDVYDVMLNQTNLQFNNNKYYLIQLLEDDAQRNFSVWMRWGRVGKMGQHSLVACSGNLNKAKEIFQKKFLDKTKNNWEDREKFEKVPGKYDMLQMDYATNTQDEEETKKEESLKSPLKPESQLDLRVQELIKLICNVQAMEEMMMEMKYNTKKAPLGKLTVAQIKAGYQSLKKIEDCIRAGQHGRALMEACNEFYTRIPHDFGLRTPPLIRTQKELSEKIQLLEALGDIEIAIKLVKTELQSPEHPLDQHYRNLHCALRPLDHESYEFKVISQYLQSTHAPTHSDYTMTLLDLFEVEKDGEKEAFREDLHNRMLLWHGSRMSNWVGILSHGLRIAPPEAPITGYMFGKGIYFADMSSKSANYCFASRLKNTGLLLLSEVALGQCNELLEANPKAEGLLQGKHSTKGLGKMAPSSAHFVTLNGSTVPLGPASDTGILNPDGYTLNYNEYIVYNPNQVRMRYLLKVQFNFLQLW
Sequence of PARP1 (P09874 whole entry, species assumed): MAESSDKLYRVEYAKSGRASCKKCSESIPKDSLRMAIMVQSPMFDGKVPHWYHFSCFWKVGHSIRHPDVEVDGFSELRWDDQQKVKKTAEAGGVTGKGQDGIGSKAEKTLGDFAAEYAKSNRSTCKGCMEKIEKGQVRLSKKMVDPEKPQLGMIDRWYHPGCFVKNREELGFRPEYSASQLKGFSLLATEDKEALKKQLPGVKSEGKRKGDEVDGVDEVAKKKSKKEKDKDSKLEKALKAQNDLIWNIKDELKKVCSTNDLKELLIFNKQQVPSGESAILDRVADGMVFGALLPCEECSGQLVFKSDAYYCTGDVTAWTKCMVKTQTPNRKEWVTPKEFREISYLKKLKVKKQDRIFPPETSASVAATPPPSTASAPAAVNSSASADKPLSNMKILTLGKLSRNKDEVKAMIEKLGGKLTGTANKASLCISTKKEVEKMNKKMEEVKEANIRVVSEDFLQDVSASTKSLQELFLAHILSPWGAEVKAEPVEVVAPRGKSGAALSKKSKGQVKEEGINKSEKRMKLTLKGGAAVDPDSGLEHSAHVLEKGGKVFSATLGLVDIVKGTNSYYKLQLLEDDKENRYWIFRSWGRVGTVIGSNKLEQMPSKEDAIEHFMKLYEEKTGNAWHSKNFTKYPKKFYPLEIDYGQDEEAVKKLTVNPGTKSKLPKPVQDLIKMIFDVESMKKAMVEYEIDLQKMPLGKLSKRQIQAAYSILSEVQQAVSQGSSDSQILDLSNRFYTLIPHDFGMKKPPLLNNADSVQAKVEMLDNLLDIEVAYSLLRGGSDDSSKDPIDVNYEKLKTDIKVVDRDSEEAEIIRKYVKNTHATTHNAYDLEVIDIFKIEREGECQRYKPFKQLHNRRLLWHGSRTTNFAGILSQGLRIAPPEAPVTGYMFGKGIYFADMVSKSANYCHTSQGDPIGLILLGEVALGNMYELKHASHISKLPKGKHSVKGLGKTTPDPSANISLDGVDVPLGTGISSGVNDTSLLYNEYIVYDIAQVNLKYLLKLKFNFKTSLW

Row | Structure (SMILES) | pIC50 [1, 7] | pIC50 [2, 8] | pIC50 [3] | pIC50 [4, 9] | pIC50 [5, 10] | pIC50 [6, 11] | pIC50 ([1]; read-out: PARP7 activity inhibition IC50; 6.25 nM of PARP7 solution, method of test example 1) | pIC50 ([2]; read-out: PARP7 activity inhibition IC50; Histone H1 coated plate, Biotin-Labeled NAD+, 2 h at room temperature, chemiluminescence) | pIC50 ([4]; read-out: PARP7 binding inhibition IC50; TR-FRET, Biotin-labeled probe RBN011147) | pIC50 ([5]; read-out: PARP1 activity inhibition IC50; 5 nM of PARP1 solution, method of test example 1) | pIC50 ([6]; read-out: PARP2 activity inhibition IC50; 5 nM of PARP2, method of test example 1)
1 | CC(CCCNC(=O)c1cnc(-c2ncc(C(F)(F)F)cn2)cn1)Nc1cn[nH]c(=O)c1C(F)(F)F (stereo not drawn) [Example 4] | > 8.52 | > 8.52 | 6.00 to 6.52 | > 8.00 | 7.00 to 7.52 | 8.00 to 8.52 |  |  |  |  | 
2 | Cc1c(CCC(=O)Nc2ccc(-c3ncc(C(F)(F)F)cn3)cc2)c[nH]c(=O)c1C(F)(F)F [Example 10] | > 8.52 | > 8.52 | 5.52 to 6.00 | > 8.00 | 8.00 to 8.52 | 8.00 to 8.52 |  |  |  |  | 
3 | CC(CCCNC(=O)c1ccc(-c2ncc(C(F)(F)F)s2)cc1)Nc1cn[nH]c(=O)c1C(F)(F)F (stereo not drawn) [Example 17] | > 8.52 | > 8.52 | > 6.52 | > 8.00 | 7.52 to 8.00 | > 8.52 |  |  |  |  | 
4 | O=C(CCc1c[nH]c(=O)c(C(F)(F)F)c1N1CC2(CCC2)C1)Nc1ccc(-c2ncc(C(F)(F)F)s2)cn1 [Example 69] | > 8.52 | > 8.52 | < 5.52 | > 8.00 | < 7.00 | < 7.00 |  |  |  |  | 
5 | O=C(CCc1c[nH]c(=O)c(C(F)(F)F)c1N1CC2(CCC2)C1)Nc1ccc(-c2ncc(C(F)(F)F)cn2)cn1 [Example 70] |  |  | < 5.52 |  |  |  | 8.00 to 8.52 | 8.00 to 8.52 | > 8.00 | < 7.00 | < 7.00
6 | O=C(NCCCC(Nc1cn[nH]c(=O)c1C(F)(F)F)C(=O)N1CCCC1)c1ccc(-c2ncc(C(F)(F)F)cn2)cc1 (stereo not drawn) [Example 84] | > 8.52 | > 8.52 | 6.00 to 6.52 | 7.52 to 8.00 | < 7.00 | 7.52 to 8.00 |  |  |  |  | 
7 | CC1(C)CN(C(=O)C(CCCNC(=O)c2ccc(-c3ncc(C(F)(F)F)s3)cc2)Nc2cn[nH]c(=O)c2C(F)(F)F)C1 (stereo not drawn) [Example 85] | > 8.52 | > 8.52 | 6.00 to 6.52 | > 8.00 | 7.00 to 7.52 | 8.00 to 8.52 |  |  |  |  | 
8 | O=C(NCCCC(Nc1cn[nH]c(=O)c1C(F)(F)F)C(=O)N1CCCC1)c1ccc(-c2ncc(C(F)(F)F)s2)cc1 (stereo not drawn) [Example 86] | > 8.52 | > 8.52 | > 6.52 | > 8.00 | 7.52 to 8.00 | 8.00 to 8.52 |  |  |  |  | 
9 | O=C(NCCCC(Nc1cn[nH]c(=O)c1C(F)(F)F)C(=O)N1CC2(CCC2)C1)c1cnc(-c2ncc(C(F)(F)F)cn2)cn1 (stereo not drawn) [Example 87] | > 8.52 | > 8.52 | > 6.52 | 7.52 to 8.00 | 7.00 to 7.52 | 7.52 to 8.00 |  |  |  |  | 
10 | O=C(NCCCC(Nc1cn[nH]c(=O)c1C(F)(F)F)C(=O)N1CCOCC1)c1ccc(-c2ncc(C(F)(F)F)s2)cc1 (stereo not drawn) [Example 88] | > 8.52 | > 8.52 | 6.00 to 6.52 | > 8.00 | 7.00 to 7.52 | 8.00 to 8.52 |  |  |  |  | 
11 | O=C(NCCCC(Nc1cn[nH]c(=O)c1C(F)(F)F)C(=O)N1CCCC1)c1cnc(-c2ncc(C(F)(F)F)cn2)cn1 (stereo not drawn) [Example 89] | > 8.52 | > 8.52 | 6.00 to 6.52 | > 8.00 | 7.00 to 7.52 | 7.52 to 8.00 |  |  |  |  | 
12 | O=C(NCCCC(Nc1cn[nH]c(=O)c1C(F)(F)F)C(=O)N1CCOCC1)c1cnc(-c2ncc(C(F)(F)F)cn2)cn1 (stereo not drawn) [Example 90] | > 8.52 | > 8.52 | < 5.52 | 7.00 to 7.52 | 7.00 to 7.52 | 7.00 to 7.52 |  |  |  |  | 
13 | O=C(NCCc1n[nH]c(=O)c(C(F)(F)F)c1N1CC2(CCC2)C1)c1cnc(-c2ncc(C(F)(F)F)cn2)cn1 [Example 166] | 8.00 to 8.52 | 8.00 to 8.52 | < 5.52 | < 7.00 | < 7.00 | < 7.00 |  |  |  |  | 
14 | CC1(C)CN(C(=O)C(CCCNC(=O)c2cnc(-c3ncc(C(F)(F)F)cn3)cn2)Nc2cn[nH]c(=O)c2C(F)(F)F)C1 (stereo not drawn) [Example 174] | 8.00 to 8.52 | 8.00 to 8.52 | < 5.52 | 7.52 to 8.00 | 7.00 to 7.52 | 8.00 to 8.52 |  |  |  |  | 
15 | CC(CCCNC(=O)c1ccc(-c2cc(C(F)(F)F)n(C)n2)cc1)Nc1cn[nH]c(=O)c1C(F)(F)F (stereo not drawn) [Example 185] |  | > 8.52 | 6.00 to 6.52 | 7.00 to 7.52 |  |  |  |  |  |  | 
16 | CC(CCCNC(=O)c1ccc(-c2noc(C3CC3)n2)cc1)Nc1cn[nH]c(=O)c1C(F)(F)F (stereo not drawn) [Example 186] |  | > 8.52 | 5.52 to 6.00 | 7.52 to 8.00 |  |  |  |  |  |  | 
17 | CC(CCCNC(=O)c1ccc(-c2ccc(-c3cnco3)cn2)cc1)Nc1cn[nH]c(=O)c1C(F)(F)F (stereo not drawn) [Example 188] |  | > 8.52 | < 5.52 | 7.52 to 8.00 |  |  |  |  |  |  | 
18 | Cc1nc(-c2ccc(C(=O)NCCCC(C)Nc3cn[nH]c(=O)c3C(F)(F)F)cc2)sc1C (stereo not drawn) [Example 189] |  | > 8.52 | 5.52 to 6.00 | 7.00 to 7.52 |  |  |  |  |  |  | 
19 | CC(CCCNC(=O)c1ccc(-c2nn(C)cc2F)cc1)Nc1cn[nH]c(=O)c1C(F)(F)F (stereo not drawn) [Example 192] |  | 8.00 to 8.52 | < 5.52 | 7.00 to 7.52 |  |  |  |  |  |  | 
20 | CC(CCCNC(=O)c1cnc(-c2cc(C(F)(F)F)sn2)c(F)c1)Nc1cn[nH]c(=O)c1C(F)(F)F (stereo not drawn) [Example 205] |  | > 8.52 | 6.00 to 6.52 | > 8.00 |  |  |  |  |  |  | 
21 | CC(CCCNC(=O)c1ccc(-n2cc(C(F)(F)F)cn2)nc1)Nc1cn[nH]c(=O)c1C(F)(F)F (stereo not drawn) [Example 206] |  | > 8.52 | 5.52 to 6.00 | > 8.00 |  |  |  |  |  |  | 
22 | CC(CCCNC(=O)c1ccc(-c2cc(C(F)(F)F)sn2)nc1)Nc1cn[nH]c(=O)c1C(F)(F)F (stereo not drawn) [Example 207] |  | > 8.52 | 5.52 to 6.00 | 7.52 to 8.00 |  |  |  |  |  |  | 
23 | CC(CCCNC(=O)c1ccc(-c2ncc(C(F)(F)F)s2)cn1)Nc1cn[nH]c(=O)c1C(F)(F)F (stereo not drawn) [Example 209] |  | > 8.52 | > 6.52 | 7.52 to 8.00 |  |  |  |  |  |  | 
24 | CC(CCCNC(=O)c1ccc(-c2ncc(C(F)(F)F)s2)nc1)Nc1cn[nH]c(=O)c1C(F)(F)F (stereo not drawn) [Example 211] |  | > 8.52 | 5.52 to 6.00 | > 8.00 |  |  |  |  |  |  | 
25 | CC(CCCNC(=O)c1ccc(-c2cc(C(F)(F)F)sn2)cc1F)Nc1cn[nH]c(=O)c1C(F)(F)F (stereo not drawn) [Example 212] |  | > 8.52 | > 6.52 | > 8.00 |  |  |  |  |  |  | 
26 | CC(C)(C)NC(=O)[C@@H](CCCNC(=O)c1ccc(-c2ncc(C(F)(F)F)s2)cc1)Nc1cn[nH]c(=O)c1C(F)(F)F [Example 221] | > 8.52 | > 8.52 | > 6.52 | > 8.00 | < 7.00 | 8.00 to 8.52 |  |  |  |  | 
27 | O=C(NCCC[C@@H](Nc1cn[nH]c(=O)c1C(F)(F)F)C(=O)N1CC[C@@H](F)C1)c1ccc(-c2ncc(C(F)(F)F)s2)cc1 [Example 222] | > 8.52 | > 8.52 | > 6.52 | > 8.00 | 7.52 to 8.00 | > 8.52 |  |  |  |  | 
28 | CN(C(=O)[C@@H](CCCNC(=O)c1ccc(-c2ncc(C(F)(F)F)s2)cc1)Nc1cn[nH]c(=O)c1C(F)(F)F)C1CC1 [Example 223] | 8.00 to 8.52 | 8.00 to 8.52 | > 6.52 | > 8.00 | 8.00 to 8.52 | 7.00 to 7.52 |  |  |  |  | 
29 | O=C(NCCC[C@@H](Nc1cn[nH]c(=O)c1C(F)(F)F)C(=O)N1CC(Cl)C1)c1ccc(-c2ncc(C(F)(F)F)s2)cc1 [Example 224] | > 8.52 | > 8.52 | > 6.52 | > 8.00 | 8.00 to 8.52 | 7.52 to 8.00 |  |  |  |  | 
30 | CC(CCCNC(=O)c1ccc(-c2cc(C(F)(F)F)nn2C)cc1)Nc1cn[nH]c(=O)c1C(F)(F)F (stereo not drawn) [Example 245] |  | 7.52 to 8.00 | < 5.52 | < 7.00 |  |  |  |  |  |  | 
